In patent publication US10303923B1, “Quantitation of NETosis using image analysis” (The University of North Carolina at Chapel Hill, priority 2018, dated 2019):
“Also recorded” adds a separate entry of the source. Where two headings read alike, the source gives them in different places.

Tests used:
[1] = system: Human neutrophils from healthy volunteers; assay: NETosis quantitation by CNN image analysis in adherent neutrophils from healthy volunteers; type: cell-based; details: read-out: EC50 (concentration inducing 50% of neutrophils to undergo NETosis)
From the text: This specification describes an assay for the assessment of 1) the EC50 of NETotic agonists in adherent human neutrophils and 2) the NETosis mechanism specific to these agonists. Neutrophils were isolated from peripheral blood of healthy volunteers and allowed to adhere to 96-well plates before stimulation with different concentrations of agonists. We established our assay with two widely used agonists, PMA, a PKC activator and A23187, a Ca+2 ionophore. NETosis data were acquired using the automated BD Pathway 855 Bio-imaging Systems. An image processing algorithm was created to distinguish two populations related to neutrophil nuclear size, intensity and texture. Our assay is the first to describe a semi-automated imaging and analysis method for the study of NETosis and is a positive step towards standardizing the quantitation of NETosis in isolated cells. This assay has potential applications in screening novel pharmaceuticals and in analyzing cells from patients with various diseases.
Adherent neutrophils were treated for 2 hours with either agonist or DMSO vehicle. DMSO treatment alone causes neutrophil NETosis reaching a maximum response of 30% with 0.16% DMSO. The resulting NETotic nuclei are visually indistinguishable from those observed with PMA- or A23187-treatments as shown graph 204. DMSO is the recommended solvent for both PMA and A23187. […]

[2] = system: neutrophils from SCD patients; assay: NETosis quantitation by CNN image analysis in neutrophils from SCD patients at steady-state; type: cell-based, human; details: SCD patients at steady-state (n=7), 2 hours treatment, two-way ANOVA
From the text: We next applied this assay to an inflammatory disease that has been suspected of being influenced by NETosis; patients with sickle cell disease (SCD) suffer chronic inflammation due to recurrent ischemia/reperfusion injuries and are hypercoagulable. The hypercoagulability is thought to be due to at least in part to circulating NETs similar to other inflammatory diseases. Soluble components presumably from NETs (DNA and nucleosomes) are detectible in plasma from both SCD patients and humanized SCD mice^11, 12. Furthermore, neutrophils from healthy individuals exposed to plasma from SCD patients causes NET generation. Because SCD neutrophils function at a reduced capacity for oxidative burst and produce less ROS than non-SCD neutrophils, we asked whether the ROS-dependent NETosis pathway is affected^13-15. Only patients at steady-state were included in the study. […] Reduction of neutrophils' oxidative burst capacity also occurs in conditions such as chronic granulomatous disease (CGD), and results in reduced NETosis^16. The divergence of our results from those previously published are possibly due to our observation of NETosis in neutrophils directly without the use of a surrogate NETosis biomarker.
The same conditions for cell isolation and treatment were used for neutrophils from SCD patients at steady-state (n=7), and the results are shown in graphs 206 and 208. […]

Row | Structure (SMILES) | EC50 ([1]; Homo sapiens, Neutrophil, n=8, 2 hours treatment, PADIV-dependent pathway) | NETosis response of SCD neutrophils compared with non-SCD neutrophils [2] | EC50 ([1]; n=11, 2 hours treatment, ROS-dependent pathway)
1 | CNc1ccc2oc(C[C@H]3O[C@@]4(CC[C@H]3C)O[C@H]([C@H](C)C(=O)c3ccc[nH]3)[C@H](C)C[C@H]4C)nc2c1C(=O)O [A23187, Calcimycin] | 900 nM | responded similarly; also recorded: little difference was observed between SCD and non-SCD | 
2 | CCCCCCCCCCCCCC(=O)O[C@@H]1[C@@H](C)[C@@]2(O)[C@@H](C=C(CO)C[C@]3(O)C(=O)C(C)=C[C@@H]23)[C@@H]2C(C)(C)[C@]12OC(C)=O [PMA] |  | comparatively insensitive; also recorded: responded poorly | 2.1 nM
